The values that follow come from patent US8987314B2, “Amide, urea or sulfone amide linked benzothiazole inhibitors of endothelial lipase” (Bristol-Myers Squibb Company, priority 2012, dated 2015).

Structures are written as SMILES.

What is called IC50 is the midpoint of a concentration-inhibition curve.

Chain of Endothelial lipase (EL) (Q9Y5X9 21-500): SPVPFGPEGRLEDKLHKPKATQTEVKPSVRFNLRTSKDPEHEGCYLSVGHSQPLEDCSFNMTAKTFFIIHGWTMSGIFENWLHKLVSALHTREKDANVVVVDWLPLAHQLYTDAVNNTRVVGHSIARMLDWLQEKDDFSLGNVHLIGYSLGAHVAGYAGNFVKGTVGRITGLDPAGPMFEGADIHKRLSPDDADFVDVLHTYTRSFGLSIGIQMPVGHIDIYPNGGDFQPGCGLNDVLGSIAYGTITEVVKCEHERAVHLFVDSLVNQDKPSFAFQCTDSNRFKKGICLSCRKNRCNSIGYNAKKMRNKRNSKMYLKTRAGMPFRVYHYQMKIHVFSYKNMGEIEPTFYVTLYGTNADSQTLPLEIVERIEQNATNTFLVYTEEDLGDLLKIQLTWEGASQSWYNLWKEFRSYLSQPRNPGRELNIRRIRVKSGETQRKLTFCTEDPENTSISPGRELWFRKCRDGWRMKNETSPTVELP

In the test the target is Endothelial lipase (EL) (Homo sapiens (Human), UniProt Q9Y5X9). Nature of the test: EL assay: endothelial lipase activity with fluorescent substrate A10070 in DMPG vesicles. The test is classed as biochemical. The settings on record: EL from conditioned media of HT-1080 cells; 30 min incubation with compound at 37° C.; A10070/DMPG vesicles. How it is done:
Endothelial lipase (EL) and hepatic lipase (HL) activities were measured using a fluorescent substrate, A10070, (Invitrogen, CA) doped into an artificial vesicle containing DMPG (Avanti Polar Lipids) as the excipient. Vesicles were prepared by combining 571 μL of 29 mM DMPG in a 1:1 mixture of MeOH and CHCl3 with 2000 μL of 1 mM A10070 in a 1:1 mixture of MeOH and CHCl3. The mixture was dried under nitrogen in multiple vials then resuspended in 20 mL total volume of 50 mM HEPES pH 8.0 buffer containing 50 mM NaCl and 0.2 mM EDTA. The sample was allowed to sit at room temperature for 15 min and then was sonicated 3×4 mins on ice with a Branson Sonicator using duty cycle 1. This preparation provides vesicles with a mole fraction of 0.11 for the FRET substrate.
The enzymatic assay was measured using 384-well white Optiplates. Each well contained 20 μL of assay buffer (50 mM HEPES pH 8.0, 50 mM NaCl and 1 mM CaCl2) and 0.25 μL of a DMSO solution containing a compound of interest. EL or HL (10 μL) was added and allowed to incubate with the compound for 30 min at 37° C. The source of EL was conditioned media obtained from HT-1080 cells that were transformed using RAGE technology (Athersys) to overexpress endogenous EL, and HL was partially purified from conditioned media obtained from COS cells overexpressing HL. The reaction was started by the addition of 10 μL of a 1:10 dilution of vesicles. The final total reaction volume was […]. The reaction rates were measured on a Gemini plate reader with an excitation wavelength of 490 nm and an emission wavelength of 530 nm. Readings were taken over a period of 60 minutes, and the slope between 300 and 900 secs of the readout was used to calculate the rate of the reaction.
In the case of `NS(=O)(=O)CCNC(=O)C(NC(=O)c1ccc(C(F)(F)F)cc1)c1nc2ccc(-c3ccc(F)nc3)cc2s1` (centres unmarked) [Example A1, N-(1-(6-(6-Fluoropyridin-3-yl)benzo[d]thiazol-2-yl)-2-oxo-2-((2-sulfamoylethyl)amino)ethyl)-4-(trifluoromethyl)benzamide], the IC50 was 35 nM. The value for `CCCC(=O)NC(C(=O)NCCS(N)(=O)=O)c1nc2ccc(-c3ccc(F)nc3)cc2s1` (centres unmarked) [Example A3, N-(1-(6-(6-fluoropyridin-3-yl)benzo[d]thiazol-2-yl)-2-oxo-2-((2-sulfamoylethyl)amino)ethyl)butyramide] was less than 10 nM; that for `NS(=O)(=O)CCNC(=O)C(NC(=O)C(F)F)c1nc2ccc(-c3ccc(F)nc3)cc2s1` (centres unmarked) [Example A4, 2-(2,2-difluoroacetamido)-2-(6-(6-fluoropyridin-3-yl)benzo[d]thiazol-2-yl)-N-(2-sulfamoylethyl)acetamide] was less than 10 nM; that for `CCCC(=O)NC(C(=O)NCCS(N)(=O)=O)c1nc2ccc(-c3ccc(C(=O)N4CCOCC4)cc3)cc2s1` (centres unmarked) [Example A5, N-(1-(6-(4-(morpholine-4-carbonyl)phenyl)benzo[d]thiazol-2-yl)-2-oxo-2-((2-sulfamoylethyl)amino)ethyl)butyramide] was less than 10 nM. The value for `NS(=O)(=O)CCNC(=O)C(NC(=O)c1cccnc1)c1nc2ccc(-c3ccc(C(=O)N4CCOCC4)cc3)cc2s1` (centres unmarked) [Example A6, N-(1-(6-(4-(morpholine-4-carbonyl)phenyl)benzo[d]thiazol-2-yl)-2-oxo-2-((2-sulfamoylethyl)amino)ethyl)nicotinamide] was less than 10 nM; that for `NS(=O)(=O)CCNC(=O)C(NC(=O)c1ccc(C(F)(F)F)cc1)c1nc2ccc(-c3ccc(C(=O)N4CCOCC4)cc3)cc2s1` (centres unmarked) [Example A7] was less than 10 nM. Consider `CC(=O)NC(C(=O)NCc1nnc(C)o1)c1nc2ccc(-c3ccc(F)cc3)cc2s1` (centres unmarked) [Example A8, 2-acetamido-2-(6-(4-fluorophenyl)benzo[d]thiazol-2-yl)-N-((5-methyl-1,3,4-oxadiazol-2-yl)methyl)acetamide], for which the IC50 was less than 10 nM. Consider `Cc1nnc(CNC(=O)C(NC(=O)NCc2ccccc2)c2nc3ccc(-c4ccc(F)cc4)cc3s2)o1` (centres unmarked) [Example A9, 2-(3-Benzylureido)-2-(6-(4-fluorophenyl)benzo[d]thiazol-2-yl)-N-((5-methyl-1,3,4-oxadiazol-2-yl)methyl)acetamide], for which the IC50 was found to be 50 nM.

Turning to `CS(=O)(=O)C(C(=O)NCCS(N)(=O)=O)c1nc2ccc(-c3ccccc3)cc2s1` (centres unmarked) [Example B1, 2-(Methylsulfonyl)-2-(6-phenylbenzo[d]thiazol-2-yl)-N-(2-sulfamoylethyl)acetamide], the IC50 was less than 10 nM. The value for `C=CCS(=O)(=O)C(C(=O)NCCS(N)(=O)=O)c1nc2ccc(-c3ccccc3)cc2s1` (centres unmarked) [Example B2, 2-(Allylsulfonyl)-2-(6-phenylbenzo[d]thiazol-2-yl)-N-(2-sulfamoylethyl)acetamide] was less than 10 nM; that for `CS(=O)(=O)C(C(=O)NCCS(N)(=O)=O)c1nc2ccc(-c3ccc(F)nc3)cc2s1` (centres unmarked) [Example B3, 2-(6-(6-fluoro-3-pyridinyl)-1,3-benzothiazol-2-yl)-2-(methylsulfonyl)-N-(2-sulfamoylethyl)acetamide] was less than 10 nM; that for `Cc1noc(C)c1-c1ccc2nc(C(C(=O)NCCS(N)(=O)=O)S(C)(=O)=O)sc2c1` (centres unmarked) [Example B4, 2-(6-(3,5-dimethyl-4-isoxazolyl)-1,3-benzothiazol-2-yl)-2-(methylsulfonyl)-N-(2-sulfamoylethyl)acetamide] was 13 nM. With `NS(=O)(=O)CCNC(=O)C(c1nc2ccc(-c3ccc(F)nc3)cc2s1)S(=O)(=O)Cc1ccccc1` (centres unmarked) [Example B5, 2-(benzylsulfonyl)-2-(6-(6-fluoro-3-pyridinyl)-1,3-benzothiazol-2-yl)-N-(2-sulfamoylethyl)acetamide] the figure was less than 10 nM; with `NS(=O)(=O)CCNC(=O)C(c1nc2ccc(-c3ccc(F)nc3)cc2s1)S(=O)(=O)Cc1ccc(C(F)(F)F)cc1` (centres unmarked) [Example B6, 2-(6-(6-fluoro-3-pyridinyl)-1,3-benzothiazol-2-yl)-N-(2-sulfamoylethyl)-2-((4-(trifluoromethyl)benzyl)sulfonyl)acetamide], less than 10 nM; with `NS(=O)(=O)CCNC(=O)C(c1nc2ccc(-c3ccc(F)nc3)cc2s1)S(=O)(=O)CCC(F)(F)F` (centres unmarked) [Example B7, 2-(6-(6-fluoropyridin-3-yl)benzo[d]thiazol-2-yl)-N-(2-sulfamoylethyl)-2-((3,3,3-trifluoropropyl)sulfonyl)acetamide], less than 10 nM.

In the case of `CS(=O)(=O)C(C(=O)NCCS(N)(=O)=O)c1nc2ccc(-c3ccnc(F)c3)cc2s1` (centres unmarked) [Example B8, 2-(6-(2-fluoro-4-pyridinyl)-1,3-benzothiazol-2-yl)-2-(methylsulfonyl)-N-(2-sulfamoylethyl)acetamide], the IC50 is less than 10 nM. As for `CS(=O)(=O)C(C(=O)NCCS(N)(=O)=O)c1nc2ccc(-c3ccnc(Cl)c3)cc2s1` (centres unmarked) [Example B9, 2-(6-(2-chloro-4-pyridinyl)-1,3-benzothiazol-2-yl)-2-(methylsulfonyl)-N-(2-sulfamoylethyl)acetamide], the IC50 was less than 10 nM. The value for `CS(=O)(=O)C(C(=O)NCCS(N)(=O)=O)c1nc2ccc(-c3ccc(Cl)nc3)cc2s1` (centres unmarked) [Example B10, 2-(6-(6-chloro-3-pyridinyl)-1,3-benzothiazol-2-yl)-2-(methylsulfonyl)-N-(2-sulfamoylethyl)acetamide] was less than 10 nM. With `CC(C)S(=O)(=O)C(C(=O)NCCS(N)(=O)=O)c1nc2ccc(-c3ccc(F)nc3)cc2s1` (centres unmarked) [Example B12, 2-(6-(6-fluoro-3-pyridinyl)-1,3-benzothiazol-2-yl)-2-(isopropylsulfonyl)-N-(2-sulfamoylethyl)acetamide] the figure was less than 10 nM; with `CS(=O)(=O)C(C(=O)NCCS(N)(=O)=O)c1nc2ccc(-c3ccc(CN4CCOCC4)cc3)cc2s1` (centres unmarked) [Example B13, 2-(methylsulfonyl)-2-(6-(4-(4-morpholinylmethyl)phenyl)-1,3-benzothiazol-2-yl)-N-(2-sulfamoylethyl)acetamide], less than 10 nM. The value for `C=CCS(=O)(=O)C(C(=O)NCCS(N)(=O)=O)c1nc2ccc(-c3ccc(CN4CCOCC4)cc3)cc2s1` (centres unmarked) [Example B14, 2-(allylsulfonyl)-2-(6-(4-(4-morpholinylmethyl)phenyl)-1,3-benzothiazol-2-yl)-N-(2-sulfamoylethyl)acetamide] was less than 10 nM; that for `CCCS(=O)(=O)C(C(=O)NCCS(N)(=O)=O)c1nc2ccc(-c3ccnc(F)c3)cc2s1` (centres unmarked) [Example B15, 2-(6-(2-fluoro-4-pyridinyl)-1,3-benzothiazol-2-yl)-2-(propylsulfonyl)-N-(2-sulfamoylethyl)acetamide] was less than 10 nM; that for `CC(=O)Nc1ccc(-c2ccc3nc(C(C(=O)NCCS(N)(=O)=O)S(C)(=O)=O)sc3c2)cc1` (centres unmarked) [Example B16, 2-(6-(4-acetamidophenyl)-1,3-benzothiazol-2-yl)-2-(methylsulfonyl)-N-(2-sulfamoylethyl)acetamide] was 40 nM.

Consider `CN(C)S(=O)(=O)c1ccc(-c2ccc3nc(C(C(=O)NCCS(N)(=O)=O)S(C)(=O)=O)sc3c2)cc1` (centres unmarked) [Example B17, 2-(6-(4-(dimethylsulfamoyl)phenyl)-1,3-benzothiazol-2-yl)-2-(methylsulfonyl)-N-(2-sulfamoylethyl)acetamide], for which the IC50 is less than 10 nM.

Turning to `CNc1ccc(-c2ccc3nc(C(C(=O)NCCS(N)(=O)=O)S(C)(=O)=O)sc3c2)cc1` (centres unmarked) [Example B18, 2-(6-(4-(methylamino)phenyl)-1,3-benzothiazol-2-yl)-2-(methylsulfonyl)-N-(2-sulfamoylethyl)acetamide], the IC50 is 13 nM. The value for `COc1ccc(-c2ccc3nc(C(C(=O)NCCS(N)(=O)=O)S(C)(=O)=O)sc3c2)cn1` (centres unmarked) [Example B19, 2-(6-(6-methoxy-3-pyridinyl)-1,3-benzothiazol-2-yl)-2-(methylsulfonyl)-N-(2-sulfamoylethyl)acetamide] was less than 10 nM; that for `CS(=O)(=O)C(C(=O)NCCS(N)(=O)=O)c1nc2ccc(-c3ccc(N4CCOCC4)cc3)cc2s1` (centres unmarked) [Example B20, 2-(methylsulfonyl)-2-(6-(4-(4-morpholinyl)phenyl)-1,3-benzothiazol-2-yl)-N-(2-sulfamoylethyl)acetamide] was less than 10 nM; that for `CS(=O)(=O)C(C(=O)NCCS(N)(=O)=O)c1nc2ccc(-c3ccc(-n4cccn4)cc3)cc2s1` (centres unmarked) [Example B21, 2-(methylsulfonyl)-2-(6-(4-(1H-pyrazol-1-yl)phenyl)-1,3-benzothiazol-2-yl)-N-(2-sulfamoylethyl)acetamide] was less than 10 nM.

Regarding `COC(=O)Nc1ccc(-c2ccc3nc(C(C(=O)NCCS(N)(=O)=O)S(C)(=O)=O)sc3c2)cc1` (centres unmarked) [Example B22, methyl (4-(2-(1-(methylsulfonyl)-2-oxo-2-((2-sulfamoylethyl)amino)ethyl)-1,3-benzothiazol-6-yl)phenyl)carbamate], the IC50 is less than 10 nM.
